{
  "source": "patent US20240165056A1",
  "about": "“USE OF TAMOXIFEN AND RELATED COMPOUNDS TO REDUCE BREAST IMPLANT CAPSULE FORMATION AND CAPSULAR CONTRACTURE” (Ohio State Innovation Foundation, priority 2021, published 2024)",
  "format_in_all_cases": "in vivo, mice",
  "key": {"[1]": {"tested_on": "estrogen receptor β (ER-β)", "experiment": "Immunohistochemistry of implant capsule: ER-β", "details": "75 mg/kg i.p. daily; explant at 2 weeks", "procedure": "(§1) Eight-week-old C57BL/6 or Beige (C57BL/6J-Lyst^bg-J/J) female mice (Jackson Labs, Bar Harbor, ME, USA) (N=10/group) were treated with daily tamoxifen or vehicle injections into the intraperitoneal cavity 1 week before surgery. Tamoxifen injections consisted of 75 mg/kg tamoxifen citrate (Sigma, St. Louis MO, USA) in peanut oil (Sigma, St Louis MO, USA) with 10% ethanol (Sigma, St. Louis MO, USA) to promote dissolution of tamoxifen, while control injections consisted of only peanut oil and ethanol. Daily injections continued until the day of explantation, two weeks after implantation.\n(§2) Mice were anesthetized with a standard ketamine/xylazine cocktail. […]\n(§3) Explanted silicone pieces and surrounding capsules were fixed overnight in formaldehyde at 4° C. and transitioned to 70% ethanol. […] Primary antibody binding was detected by subsequent incubation with species appropriate biotinylated IgG (Vector Laboratories, CA, USA), followed by streptavidin-horse radish peroxidase (Vector Laboratories, CA, USA) and chromogenic development with 3,3-diaminobenzidine (Vector Laboratories, CA, USA). […] Slides were imaged on a Zeiss Axio Observer Z1 inverted microscope (Zeiss, Germany) and quantified using ImageJ (NIH, USA). […]\n(§4) All statistical analysis was performed in Prism 8.0 (GraphPad, San Diego, CA, USA). Data was evaluated for outliers using the Grubb's test. […]"}, "[2]": {"tested_on": "Alpha smooth muscle actin (αSMA)", "experiment": "Immunohistochemistry of implant capsule: αSMA myofibroblasts", "details": "75 mg/kg i.p. daily; explant at 2 weeks", "procedure": "as §1, §2, §3, §4"}, "[3]": {"experiment": "Mouse body weight during tamoxifen treatment in silicone implant model", "details": "75 mg/kg tamoxifen citrate i.p. daily", "procedure": "as §1\n(§5) Mice were anesthetized with a standard ketamine/xylazine cocktail. Fur was clipped and skin was prepped with betadine followed by alcohol pads. Silicone prostheses were implanted in the submammary plane, bilaterally, giving a total of 20 implants per experimental group (FIG. 1B). Skin incisions were re-approximated with 6-0 nylon suture (FIG. 1C).\n(§6) After 2 weeks, mice were euthanized and the silicone prostheses were removed en bloc with all surrounding tissue, including the overlying skin for orientation (FIG. 1D). […] These samples were excluded from further analysis owing to the potential confounding nature of bacterial contamination on capsule formation.\n(§7) All statistical analysis was performed in Prism 8.0 (GraphPad, San Diego, CA, USA). Data was evaluated for outliers using the Grubb's test. Control and tamoxifen-treated groups were compared with unpaired t-tests, except in cases where the equal variance assumption was violated; when the nonparametric Mann-Whitney test was utilized. A p-value of 0.05 was considered significant."}, "[4]": {"tested_on": "fibrous capsule around silicone implants", "experiment": "Silicone breast implant capsule formation in mouse model (H&E, Picro-Sirius Red histology)", "procedure": "as §1, §5, §6\nExplanted silicone pieces and surrounding capsules were fixed overnight in formaldehyde at 4° C. and transitioned to 70% ethanol. Samples were then paraffin embedded and sectioned at 4 μm. Samples were stained with H&E (FIG. 1E) or Picro-Sirius Red. Immunohistochemistry sections were deparaffinized, rehydrated and blocked for endogenous peroxidase activity (3% H2O2 in H2O) and nonspecific background staining (3% normal goat serum in Background Sniper, BioCare Medical, CA, USA). Antigen retrieval was performed with citrate buffer (pH 6.0) or Tris-EDTA (pH 9.0) in a pressure cooker for 10 minutes and slides were incubated for 30 minutes at room temperature with primary antibodies. Primary antibodies (all from Abcam, Cambridge, UK) included α-SMA (ab124964), CD31 (ab28364), CD68 (ab125212), iNOS (ab15323), CD163 (ab182422), Ki67 (ab15580), ER-α (ab271827), and ER-β (ab3576). Primary antibody binding was detected by subsequent incubation with species appropriate biotinylated IgG (Vector Laboratories, CA, USA), followed by streptavidin-horse radish peroxidase (Vector Laboratories, CA, USA) and chromogenic development with 3,3-diaminobenzidine (Vector Laboratories, CA, USA). Tissue sections were counterstained with Gill's hematoxylin (Vector Laboratories, CA, USA), slides were dehydrated and a cover slip was placed. Slides were imaged on a Zeiss Axio Observer Z1 inverted microscope (Zeiss, Germany) and quantified using ImageJ (NIH, USA).\nHistology was quantified from H&E slides within the fibrous capsule on the side oriented with overlying skin to maintain consistency and remove potential variability by dissection at explantation.\nas §7"}, "[5]": {"tested_on": "Estrogen receptor α (ER-α)", "experiment": "Immunohistochemistry of implant capsule: ER-α", "details": "75 mg/kg i.p. daily; explant at 2 weeks", "procedure": "as §1, §2, §3, §4"}, "Ki-67": {"tested_on": "Ki-67", "experiment": "Immunohistochemistry of implant capsule: Ki-67 cellular proliferation", "details": "75 mg/kg i.p. daily; explant at 2 weeks", "procedure": "as §1, §2, §3, §4"}, "CD68": {"tested_on": "CD68", "experiment": "Immunohistochemistry of implant capsule: CD68 macrophage infiltration", "details": "75 mg/kg i.p. daily; explant at 2 weeks", "procedure": "as §1, §2, §3, §4"}, "CD163": {"tested_on": "CD163", "experiment": "Immunohistochemistry of implant capsule: CD163 anti-inflammatory macrophages", "details": "75 mg/kg i.p. daily; explant at 2 weeks", "procedure": "as §1, §2, §3, §4"}, "CD31": {"tested_on": "CD31", "experiment": "Immunohistochemistry of implant capsule: CD31 neovascularization", "details": "75 mg/kg i.p. daily; explant at 2 weeks", "procedure": "as §1, §2, §3, §4"}, "iNOS": {"tested_on": "iNOS", "experiment": "Immunohistochemistry of implant capsule: iNOS pro-inflammatory macrophages", "details": "75 mg/kg i.p. daily; explant at 2 weeks", "procedure": "as §1, §2, §3, §4"}, "[6]": {"details": "Picro-Sirius Red, 75 mg/kg i.p. daily, explant at 2 weeks"}},
  "data": [
    {"compound": "CC/C(=C(\\c1ccccc1)c1ccc(OCCN(C)C)cc1)c1ccccc1", "note": "[tamoxifen]", "values": [
      {"measurement": "ER-β expression, cellular fraction", "setting": "[1]", "value": "36.8±7.5", "unit": "%"},
      {"measurement": "ER-β total cells/mm", "setting": "[1]", "value": "106.2±69.2", "unit": "cells/mm"},
      {"measurement": "linear density of αSMA+ cells", "setting": "[2]", "value": "295±121", "unit": "cells/mm"},
      {"measurement": "percentage of total cells αSMA+", "setting": "[2]", "value": "47.9±9.5", "unit": "%"},
      {"measurement": "body weight at the date of surgery", "setting": "[3]; one week after start of injections", "value": "16.2±1.6", "unit": "gram body weight"},
      {"measurement": "body weight at the start of the injection period", "setting": "[3]; start of injections, 1 week before surgery", "value": "17.6±1.2", "unit": "gram body weight"},
      {"measurement": "body weight at the two-week explant date", "setting": "[3]; two weeks after implantation", "value": "16.6±1.0", "unit": "gram body weight"},
      {"measurement": "cellularity of the capsules", "setting": "[4]; 75 mg/kg i.p. daily, explant at 2 weeks", "value": "3624±608", "unit": "cells/mm^2"},
      {"measurement": "capsule thickness", "setting": "[4]; 75 mg/kg tamoxifen citrate i.p. daily, explant 2 weeks after implantation", "value": "132±49", "unit": "μm"},
      {"measurement": "area percent of collagen", "setting": "[4]; [6]", "value": "36.2±3.1", "unit": "%"},
      {"measurement": "total collagen surrounding the implants", "setting": "[4]; [6]", "value": "43598±10044", "unit": "μm^2"},
      {"measurement": "reduction in capsule thickness", "setting": "[4]; tamoxifen-treated vs control, explant at 2 weeks", "value": 59, "unit": "%"},
      {"measurement": "ER-α expression as a fraction of total cells", "setting": "[5]", "value": "31.0±6.3", "unit": "%"},
      {"measurement": "ER-α total cells/mm of capsular tissue", "setting": "[5]", "value": "107.0±39.8", "unit": "cells/mm"},
      {"measurement": "Ki-67+ cells/mm", "setting": "Ki-67", "value": "324±125", "unit": "cells/mm"},
      {"measurement": "cellular fraction of Ki-67+ cells", "setting": "Ki-67", "value": "62.4±16.9", "unit": "%"},
      {"measurement": "cellular fraction of CD68", "setting": "CD68", "value": "55.9±16.0", "unit": "%"},
      {"measurement": "linear density of CD68+ cells", "setting": "CD68", "value": "303.3±136.5", "unit": "cells/mm"},
      {"measurement": "cellular fraction of CD163", "setting": "CD163", "value": "29.1±8.4", "unit": "%"},
      {"measurement": "total number of cells with positivity for CD163", "setting": "CD163", "value": "94.1±45.9", "unit": "cells/mm"},
      {"measurement": "CD31+ vessels per mm^2", "setting": "CD31", "value": "106.3±51.8", "unit": "vessels/mm^2"},
      {"measurement": "total CD31+ vessels", "setting": "CD31", "value": "15.9±9.7", "unit": "vessels/mm"},
      {"measurement": "cellular fraction of iNOS", "setting": "iNOS", "value": "60.6±12.6", "unit": "%"},
      {"measurement": "total number of cells with positivity for iNOS", "setting": "iNOS", "value": "290.6±104.2", "unit": "cells/mm"}
    ]}
  ]
}
